Reference: PubChem BioAssay AID1963984 (Molecular Pharmacology Branch, DTP, NCI, 2024)

System: 233499-124-R-J3-PDC spheroids with HUVEC/MSC, viability
Test: Anticancer human tumor 233499-124-R-J3-PDC patient-derived colon adenocarcinoma cell line growth inhibition [PI3K]
Details: for IC50: curve of first compound; for viability, T/C: stronger effect = lower value
In short: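 Multi-cell spheroids combine tumor cells with HUVEC and human MSCs, treated with targeted agents alone or with inavolisib, alpelisib, duvelisib or copanlisib. Concentrations fall in half-log steps from at or near clinical Cmax, or from 10 microM where Cmax is unknown; viability read-out.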

[1] = second compound 0.0316 µM, first compound 0.0316 µM
[2] = second compound 0.0316 µM, first compound 0.1 µM
[3] = second compound 0.0316 µM, first compound 0.316 µM
[4] = second compound 0.0316 µM, first compound 1 µM
[5] = second compound 0.0316 µM, first compound 3.16 µM
[6] = second compound 0.0316 µM, first compound 10 µM
[7] = second compound 0.1 µM, first compound 0.0316 µM
[8] = second compound 0.1 µM, first compound 0.1 µM
[9] = second compound 0.1 µM, first compound 0.316 µM
[10] = second compound 0.1 µM, first compound 1 µM
[11] = second compound 0.1 µM, first compound 3.16 µM
[12] = second compound 0.1 µM, first compound 10 µM
[13] = second compound 0.316 µM, first compound 0.0316 µM
[14] = second compound 0.316 µM, first compound 0.1 µM
[15] = second compound 0.316 µM, first compound 0.316 µM
[16] = second compound 0.316 µM, first compound 1 µM
[17] = second compound 0.316 µM, first compound 3.16 µM
[18] = second compound 0.316 µM, first compound 10 µM
[19] = second compound 1 µM, first compound 0.0316 µM
[20] = second compound 1 µM, first compound 0.1 µM
[21] = second compound 1 µM, first compound 0.316 µM
[22] = second compound 1 µM, first compound 1 µM
[23] = second compound 1 µM, first compound 3.16 µM
[24] = second compound 1 µM, first compound 10 µM
[25] = second compound 3.16 µM, first compound 0.0316 µM
[26] = second compound 3.16 µM, first compound 0.1 µM
[27] = second compound 3.16 µM, first compound 0.316 µM
[28] = second compound 3.16 µM, first compound 1 µM
[29] = second compound 3.16 µM, first compound 3.16 µM
[30] = second compound 3.16 µM, first compound 10 µM
[31] = second compound 10 µM, first compound 0.0316 µM
[32] = second compound 10 µM, first compound 0.1 µM
[33] = second compound 10 µM, first compound 0.316 µM
[34] = second compound 10 µM, first compound 1 µM
[35] = second compound 10 µM, first compound 3.16 µM
[36] = second compound 10 µM, first compound 10 µM
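Also: spheroids exposed to agents for seven days before readout.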
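For viability, T/C in this document: percent viability relative to DMSO vehicle control taken as 100%.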

## CCCS(=O)(=O)Nc1ccc(F)c(C(=O)c2c[nH]c3ncc(-c4ccc(Cl)cc4)cc23)c1F + Cc1nc(NC(=O)N2CCCC2C(N)=O)sc1-c1ccnc(C(C)(C)C(F)(F)F)c1
Second compound 0.0316 µM
  IC50: 5.29 µM
Second compound 0.1 µM
  IC50: 4.82 µM
Second compound 0.316 µM
  IC50: 4.83 µM
Second compound 1 µM
  IC50: 4.7 µM
Second compound 3.16 µM
  IC50: 3.57 µM
Second compound 10 µM
  IC50: < 0.0316 µM
[1]
  viability, T/C: 119%
[2]
  viability, T/C: 98.2%
[3]
  viability, T/C: 87.2%
[4]
  viability, T/C: 110%
[5]
  viability, T/C: 89%
[6]
  viability, T/C: 1.84%
[7]
  viability, T/C: 97%
[8]
  viability, T/C: 109%
[9]
  viability, T/C: 84.8%
[10]
  viability, T/C: 92.5%
[11]
  viability, T/C: 77.7%
[12]
  viability, T/C: 4.22%
[13]
  viability, T/C: 98.9%
[14]
  viability, T/C: 81.7%
[15]
  viability, T/C: 84.5%
[16]
  viability, T/C: 98.1%
[17]
  viability, T/C: 78.2%
[18]
  viability, T/C: 1.3%
[19]
  viability, T/C: 82.8%
[20]
  viability, T/C: 71.8%
[21]
  viability, T/C: 86.3%
[22]
  viability, T/C: 67%
[23]
  viability, T/C: 75.3%
[24]
  viability, T/C: 1.86%
[25]
  viability, T/C: 55.8%
[26]
  viability, T/C: 59.1%
[27]
  viability, T/C: 49.1%
[28]
  viability, T/C: 53.9%
[29]
  viability, T/C: 59.4%
[30]
  viability, T/C: 4.28%
[31]
  viability, T/C: 34.1%
[32]
  viability, T/C: 35.4%
[33]
  viability, T/C: 50.9%
[34]
  viability, T/C: 29.8%
[35]
  viability, T/C: 22.8%
[36]
  viability, T/C: 0.89%

## C[C@@H](NC(=O)c1ncnc(N)c1Cl)c1ncc(C(=O)Nc2cc(C(F)(F)F)c(Cl)cn2)s1 + Cc1nc(NC(=O)N2CCCC2C(N)=O)sc1-c1ccnc(C(C)(C)C(F)(F)F)c1
Second compound 0.0316 µM
  IC50: > 10 µM
Second compound 0.1 µM
  IC50: > 10 µM
Second compound 0.316 µM
  IC50: > 10 µM
Second compound 1 µM
  IC50: 9.68 µM
Second compound 3.16 µM
  IC50: 0.458 µM
Second compound 10 µM
  IC50: < 0.0316 µM
[1]
  viability, T/C: 101%
[2]
  viability, T/C: 75.5%
[3]
  viability, T/C: 113%
[4]
  viability, T/C: 136%
[5]
  viability, T/C: 112%
[6]
  viability, T/C: 106%
[7]
  viability, T/C: 109%
[8]
  viability, T/C: 90.3%
[9]
  viability, T/C: 104%
[10]
  viability, T/C: 110%
[11]
  viability, T/C: 104%
[12]
  viability, T/C: 54.8%
[13]
  viability, T/C: 111%
[14]
  viability, T/C: 104%
[15]
  viability, T/C: 87.7%
[16]
  viability, T/C: 63.9%
[17]
  viability, T/C: 92.8%
[18]
  viability, T/C: 79.4%
[19]
  viability, T/C: 90.4%
[20]
  viability, T/C: 93.3%
[21]
  viability, T/C: 69%
[22]
  viability, T/C: 94.4%
[23]
  viability, T/C: 99.4%
[24]
  viability, T/C: 48.8%
[25]
  viability, T/C: 51.5%
[26]
  viability, T/C: 71.5%
[27]
  viability, T/C: 52%
[28]
  viability, T/C: 42.5%
[29]
  viability, T/C: 37.9%
[30]
  viability, T/C: 35.8%
[31]
  viability, T/C: 33.1%
[32]
  viability, T/C: 29.2%
[33]
  viability, T/C: 34.1%
[34]
  viability, T/C: 38%
[35]
  viability, T/C: 14.4%
[36]
  viability, T/C: 14%

## Cn1ncnc1[C@H]1c2n[nH]c(=O)c3cc(F)cc(c23)N[C@@H]1c1ccc(F)cc1 + Cc1nc(NC(=O)N2CCCC2C(N)=O)sc1-c1ccnc(C(C)(C)C(F)(F)F)c1
Second compound 0.0316 µM
  IC50: > 0.1 µM
Second compound 0.1 µM
  IC50: > 0.1 µM
Second compound 0.316 µM
  IC50: > 0.1 µM
Second compound 1 µM
  IC50: > 0.1 µM
Second compound 3.16 µM
  IC50: 0.00184 µM
Second compound 10 µM
  IC50: < 0.000316 µM
Second compound 0.0316 µM, first compound 0.000316 µM
  viability, T/C: 101%
Second compound 0.0316 µM, first compound 0.001 µM
  viability, T/C: 97.2%
Second compound 0.0316 µM, first compound 0.00316 µM
  viability, T/C: 95.9%
Second compound 0.0316 µM, first compound 0.01 µM
  viability, T/C: 109%
[1]
  viability, T/C: 81.1%
[2]
  viability, T/C: 94.8%
Second compound 0.1 µM, first compound 0.000316 µM
  viability, T/C: 106%
Second compound 0.1 µM, first compound 0.001 µM
  viability, T/C: 77.2%
Second compound 0.1 µM, first compound 0.00316 µM
  viability, T/C: 85.2%
Second compound 0.1 µM, first compound 0.01 µM
  viability, T/C: 91.3%
[7]
  viability, T/C: 75.6%
[8]
  viability, T/C: 90.3%
Second compound 0.316 µM, first compound 0.000316 µM
  viability, T/C: 81.5%
Second compound 0.316 µM, first compound 0.001 µM
  viability, T/C: 89.5%
Second compound 0.316 µM, first compound 0.00316 µM
  viability, T/C: 85.3%
Second compound 0.316 µM, first compound 0.01 µM
  viability, T/C: 73.8%
[13]
  viability, T/C: 58.4%
[14]
  viability, T/C: 54.7%
Second compound 1 µM, first compound 0.000316 µM
  viability, T/C: 87.2%
Second compound 1 µM, first compound 0.001 µM
  viability, T/C: 65%
Second compound 1 µM, first compound 0.00316 µM
  viability, T/C: 50.3%
Second compound 1 µM, first compound 0.01 µM
  viability, T/C: 57.4%
[19]
  viability, T/C: 55.5%
[20]
  viability, T/C: 65%
Second compound 3.16 µM, first compound 0.000316 µM
  viability, T/C: 52.6%
Second compound 3.16 µM, first compound 0.001 µM
  viability, T/C: 43.5%
Second compound 3.16 µM, first compound 0.00316 µM
  viability, T/C: 61.8%
Second compound 3.16 µM, first compound 0.01 µM
  viability, T/C: 41%
[25]
  viability, T/C: 49.4%
[26]
  viability, T/C: 44.7%
Second compound 10 µM, first compound 0.000316 µM
  viability, T/C: 28.2%
Second compound 10 µM, first compound 0.001 µM
  viability, T/C: 30.7%
Second compound 10 µM, first compound 0.00316 µM
  viability, T/C: 37.6%
Second compound 10 µM, first compound 0.01 µM
  viability, T/C: 29.1%
[31]
  viability, T/C: 22.8%
[32]
  viability, T/C: 22.5%
